According to ChEMBL document CHEMBL4699602, “Stapled and Xenopus Glucagon-Like Peptide 1 (GLP-1)-Based Dual GLP-1/Gastrin Receptor Agonists with Improved Metabolic Benefits in Rodent Models of Obesity and Diabetes” (J Med Chem, 2020):
Active and inactive are the calls of the source. The calls are words filed in the database; no cut-off is given here. *1 amine or outer side, *2 acyl side, *3 side chain or, on linkers, in order; H or OH if unused. Where a SMILES comes first, the peptide text is derived from it. Bridges are numbered along the chain shown (N, C = ends). [ ]: non-standard residue; d: D form. X3 = O=C(O)CCCCCCCCCCCCCCCCC(=O)NC(CCC(=O)NCCOCCOCC(=O)NCCCCCCNC(=O)C(CCCCNC(=O)CCN1C(=O)CC([*:1])C1=O)NC(=O)CCN1C(=O)CC([*:2])C1=O)C(=O)O; sY = N[C@@H](Cc1ccc(OS(=O)(=O)O)cc1)C(=O)O; AEEA = NCCOCCOCC(=O)O; Aib = CC(C)(N)C(=O)O

Legend:
[1] = target: T1, Cholecystokinin receptor type A (Homo sapiens, UniProt P32238); assay: Agonist activity at human CCK-1R expressed in HEK293 cells assessed as stimulation of ERK phosphorylation incubated for 5 mins; format: cell-based
T1 sequence (P32238 whole entry): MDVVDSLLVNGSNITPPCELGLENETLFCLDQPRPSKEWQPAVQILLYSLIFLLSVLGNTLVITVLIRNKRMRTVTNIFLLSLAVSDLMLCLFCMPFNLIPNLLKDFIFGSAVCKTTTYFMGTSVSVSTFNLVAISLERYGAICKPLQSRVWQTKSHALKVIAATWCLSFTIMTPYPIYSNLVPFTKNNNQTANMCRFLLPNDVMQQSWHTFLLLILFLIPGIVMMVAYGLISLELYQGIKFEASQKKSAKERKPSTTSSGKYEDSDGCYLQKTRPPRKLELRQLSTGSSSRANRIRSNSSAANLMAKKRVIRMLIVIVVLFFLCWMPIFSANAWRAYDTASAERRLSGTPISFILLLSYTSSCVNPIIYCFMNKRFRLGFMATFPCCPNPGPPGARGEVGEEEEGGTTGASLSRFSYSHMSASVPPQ

[2] = target: Glucagon-like peptide 1 receptor (Homo sapiens, UniProt P43220); assay: Agonist activity at human GLP-1R expressed in HEK293 cells assessed as stimulation of cAMP accumulation incubated for 20 mins; format: functional, cell-based
Chain of Glucagon-like peptide 1 receptor (P43220 whole entry): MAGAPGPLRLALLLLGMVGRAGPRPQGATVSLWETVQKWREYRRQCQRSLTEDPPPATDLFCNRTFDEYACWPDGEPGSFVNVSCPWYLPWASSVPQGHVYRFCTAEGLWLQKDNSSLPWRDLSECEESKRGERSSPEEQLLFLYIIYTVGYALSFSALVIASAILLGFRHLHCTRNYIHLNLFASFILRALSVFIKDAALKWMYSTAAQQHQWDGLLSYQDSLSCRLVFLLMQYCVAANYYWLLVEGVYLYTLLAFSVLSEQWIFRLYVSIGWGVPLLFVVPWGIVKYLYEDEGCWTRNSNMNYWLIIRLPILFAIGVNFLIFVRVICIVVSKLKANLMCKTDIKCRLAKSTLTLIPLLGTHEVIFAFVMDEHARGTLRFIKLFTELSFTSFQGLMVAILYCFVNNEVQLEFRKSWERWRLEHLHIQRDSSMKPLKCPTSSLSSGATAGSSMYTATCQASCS

[3] = target: T2, Gastrin/cholecystokinin type B receptor (Homo sapiens, UniProt P32239); assay: Agonist activity at human CCK-2R expressed in HEK293 cells assessed as stimulation of ERK phosphorylation incubated for 5 mins; format: cell-based
T2 sequence (P32239 whole entry): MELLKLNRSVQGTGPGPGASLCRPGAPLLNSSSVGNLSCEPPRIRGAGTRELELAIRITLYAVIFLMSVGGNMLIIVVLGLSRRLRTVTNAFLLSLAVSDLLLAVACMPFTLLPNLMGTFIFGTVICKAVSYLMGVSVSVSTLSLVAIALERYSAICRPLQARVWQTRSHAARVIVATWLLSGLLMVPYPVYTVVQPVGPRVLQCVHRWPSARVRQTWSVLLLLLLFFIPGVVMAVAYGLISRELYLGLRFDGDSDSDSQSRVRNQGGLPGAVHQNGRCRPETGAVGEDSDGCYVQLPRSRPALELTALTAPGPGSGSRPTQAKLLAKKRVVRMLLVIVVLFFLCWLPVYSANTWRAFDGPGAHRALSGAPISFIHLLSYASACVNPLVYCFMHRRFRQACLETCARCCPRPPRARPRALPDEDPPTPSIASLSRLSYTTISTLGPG

[4] = tested on: Mus musculus; assay: Hypoglycemic activity in ICR mouse assessed as decrease in blood glucose concentration at 25 nmol/kg, ip dosed 15 mins before test and measured up to 120 mins by OGTT method; format: functional, organism-based

EC50 [2] [nM] | Compound | EC50 [1] [nM] | EC50 [3] [nM] | Activity [4]
0.055 | CC[C@H](C)[C@H](NC(=O)[C@H](CC(C)C)NC(=O)[C@H](Cc1c[nH]c2ccccc12)NC(=O)[C@H](CCC(=O)O)NC(=O)[C@@H](NC(=O)[C@H](Cc1ccccc1)NC(=O)[C@@H]1CSC2CC(=O)N(CCC(=O)NC(C(=O)NCCCCCCNC(=O)COCCOCCNC(=O)CCC(NC(=O)CCCCCCCCCCCCCCCCC(=O)O)C(=O)O)CCCCNC(=O)CCN3C(=O)CC(SC[C@H](NC(=O)[C@H](Cc4ccc(O)cc4)NC(=O)[C@H](CCC(=O)O)NC(=O)[C@@H](NC(=O)[C@@H](NC(=O)[C@H](CC(=O)O)NC(=O)[C@H](CC(N)=O)NC(=O)[C@@H](NC(=O)[C@H](Cc4ccc(O)cc4)NC(=O)[C@@H](NC(=O)CNC(=O)[C@H](CCC(=O)O)NC(=O)C(C)(C)NC(=O)[C@@H](N)Cc4c[nH]cn4)[C@@H](C)O)[C@@H](C)O)C(C)C)[C@@H](C)O)C(=O)N[C@@H](CCC(=O)O)C(=O)N[C@@H](CCC(=O)O)C(=O)N[C@@H](CCC(=O)O)C(=O)N[C@@H](C)C(=O)N[C@@H](C)C(=O)N[C@@H](CCCCN)C(=O)N1)C3=O)C2=O)[C@@H](C)CC)C(=O)N[C@@H](CCCCN)C(=O)NCC(=O)N[C@@H](CCCCN)C(=O)NCCOCCOCC(=O)NCCOCCOCC(=O)N[C@@H](Cc1ccc(O)cc1)C(=O)NCC(=O)N[C@@H](Cc1c[nH]c2ccccc12)C(=O)N[C@@H](CC(C)C)C(=O)N[C@@H](CC(=O)O)C(=O)N[C@@H](Cc1ccccc1)C(N)=O (some centres not stated) (H-H[Aib]EGTYTNDVTEYCEEEAAKCFIEWLIKGK[AEEA][AEEA]YGWLDF-NH2; linker 14-21 via X3) | > 1000 | 15.2 | –
0.061 | CC[C@H](C)[C@@H]1NC(=O)[C@H](CC(C)C)NC(=O)[C@H](Cc2c[nH]c3ccccc23)NC(=O)[C@H](CCC(=O)O)NC(=O)[C@H]([C@@H](C)CC)NC(=O)[C@H](Cc2ccccc2)NC(=O)[C@@H](NC(=O)[C@H](CCCCN)NC(=O)[C@H](C)NC(=O)[C@H](C)NC(=O)[C@H](CCC(=O)O)NC(=O)[C@H](CCC(=O)O)NC(=O)[C@H](CCC(=O)O)NC(=O)[C@H](CC(C)C)NC(=O)[C@H](Cc2ccc(O)cc2)NC(=O)[C@H](CCC(=O)O)NC(=O)[C@@H](NC(=O)[C@@H](NC(=O)[C@H](CC(=O)O)NC(=O)[C@H](CC(N)=O)NC(=O)[C@@H](NC(=O)[C@H](Cc2ccc(O)cc2)NC(=O)[C@@H](NC(=O)CNC(=O)[C@H](CCC(=O)O)NC(=O)C(C)(C)NC(=O)[C@@H](N)Cc2c[nH]cn2)[C@@H](C)O)[C@@H](C)O)C(C)C)[C@@H](C)O)CSC2CC(=O)N(CCC(=O)NCCCCC(C(=O)NCCCCCCNC(=O)COCCOCCNC(=O)CCC(NC(=O)CCCCCCCCCCCCCCCCC(=O)O)C(=O)O)NC(=O)CCN3C(=O)CC(SC[C@@H](C(=O)NCC(=O)N[C@@H](CCCCN)C(=O)NCCOCCOCC(=O)NCCOCCOCC(=O)N[C@@H](Cc4ccc(O)cc4)C(=O)NCC(=O)N[C@@H](Cc4c[nH]c5ccccc45)C(=O)N[C@@H](CC(C)C)C(=O)N[C@@H](CC(=O)O)C(=O)N[C@@H](Cc4ccccc4)C(N)=O)NC1=O)C3=O)C2=O (some centres not stated) (H-H[Aib]EGTYTNDVTEYLEEEAAKCFIEWLICGK[AEEA][AEEA]YGWLDF-NH2; linker 21-28 via X3) | > 1000 | 17.5 | –
0.083 | CC[C@H](C)[C@H](NC(=O)[C@H](CC(C)C)NC(=O)[C@H](Cc1c[nH]c2ccccc12)NC(=O)[C@H](CCC(=O)O)NC(=O)[C@@H](NC(=O)[C@H](Cc1ccccc1)NC(=O)[C@H](CS)NC(=O)[C@H](CCCCN)NC(=O)[C@H](C)NC(=O)[C@H](C)NC(=O)[C@H](CCC(=O)O)NC(=O)[C@H](CCC(=O)O)NC(=O)[C@H](CCC(=O)O)NC(=O)[C@H](CC(C)C)NC(=O)[C@H](Cc1ccc(O)cc1)NC(=O)[C@H](CCC(=O)O)NC(=O)[C@@H](NC(=O)[C@@H](NC(=O)[C@H](CC(=O)O)NC(=O)[C@H](CC(N)=O)NC(=O)[C@@H](NC(=O)[C@H](Cc1ccc(O)cc1)NC(=O)[C@@H](NC(=O)CNC(=O)[C@H](CCC(=O)O)NC(=O)C(C)(C)NC(=O)[C@@H](N)Cc1c[nH]cn1)[C@@H](C)O)[C@@H](C)O)C(C)C)[C@@H](C)O)[C@@H](C)CC)C(=O)N[C@@H](CS)C(=O)NCC(=O)N[C@@H](CCCCN)C(N)=O (HELM PEPTIDE1{H.[Aib].E.G.T.Y.T.N.D.V.T.E.Y.L.E.E.E.A.A.K.C.F.I.E.W.L.I.C.G.K.[am]}$$$$V2.0) | – | – | Active
0.024 | H-HGEGTYTNDVTEYLEEEAAKEFIEWLIKGKPSSGAPPSKKKKKK-NH2 | – | – | Active
0.028 | H-H[Aib]EGTYTNDVTEYCEEEAAKCFIEWLIKGKPSSGAPPSKKKKKK-NH2 (cysteines drawn unpaired) | – | – | Active
0.036 | H-H[Aib]EGTYTNDVTEYLEEEAAKCFIEWLICGKPSSGAPPSKKKKKK-NH2 (cysteines drawn unpaired) | – | – | Active

More lines, now with the values behind:

Compound | EC50 [2] [nM] | EC50 [1] [nM] | EC50 [3] [nM] | Activity [4]
H-HGEGTYTNDVTEYLEEEAAKEFIEWLIKGK-NH2 | 0.048 | – | – | Active
H-HGEGTYTNDVTEYLEEEAAKEFIEWLIKGKPSSGAPPPS-NH2 | 0.034 | > 1000 | > 1000 | Active
H-H[Aib]EGTYTNDVTEYCEEEAAKCFIEWLIKGKPSSGAPPPS[AEEA][AEEA]YGWLDF-NH2 (cysteines drawn unpaired) | 0.04 | > 1000 | 8.3 | –
H-H[Aib]EGTYTNDVTEYCEEEAAKCFIEWLIKGKPSSGAPPPS[AEEA][AEEA][sY]GWMDF-NH2 (cysteines drawn unpaired) | 0.038 | > 1000 | 7.6 | –
H-H[Aib]EGTYTNDVTEYLEEEAAKCFIEWLICGKPSSGAPPPS[AEEA][AEEA]YGWLDF-NH2 (cysteines drawn unpaired) | 0.048 | > 1000 | 9.4 | –
H-H[Aib]EGTYTNDVTEYLEEEAAKCFIEWLICGKPSSGAPPPS[AEEA][AEEA][sY]GWMDF-NH2 (cysteines drawn unpaired) | 0.059 | > 1000 | 8.2 | –
